Experimental findings from US20230055705A1, “SUBSTITUTED THIOPHENE CARBOXAMIDES AND DERIVATIVES THEREOF” (Bayer Aktiengesellschaft, priority 2019, published 2023) are described below.

Like-named read-outs stand apart in the source and are kept apart here.

In data set [1] the test system is salicylate responsive promoter sequence of the PR1 (pathogenesis-related protein I) gene (AT2G14610). Put plainly: Induction of defense gene expression in Arabidopsis thaliana (PR1 promoter-GFP reporter plants). The class given is in vivo. The settings on record: Arabidopsis thaliana, 72 h, 3rd day after spraying, mock treated leaves set as 1.00, read-out: relative fluorescence value; for fold induction at 75 ppm: 75 ppm of compound. As to the method: Arabidopsis thaliana reporter plants containing the coding sequence of a green fluorescent protein (GFP) linked to the salicylate responsive promoter sequence of the PR1 (pathogenesis-related protein I) gene (AT2G14610) were grown for five days and then sprayed with compounds. On the 3rd day after spraying, plant fluorescence was assessed with a MacroFluo instrument from Leica Microsystems (Wetzlar, Germany). Fluorescences were quantified with the Meta-Morph Microscopy Automation & Image Analysis Software (Molecular Devices, Sunnyvale, Calif., United States). Background fluorescence in mock treated leaves was set as 1.00.

For data set [2], the system named is Xanthomonas campestris pv. campestris. Briefly: Xanthomonas campestris pv. campestris in vitro cell test. It is filed as cell-based. The settings on record: read-out: efficacy (inhibition of bacteria growth). Here is the method:
• Solvent: DMSO • Culture medium: LB broth medium (Luria Broth Miller) Sigma • Inoculum: bacteria suspension
Compounds were solubilized in DMSO and the solution used to prepare the required range of concentrations. The final concentration of DMSO used in the assay was ≤1%.
(§1) Inoculum was prepared from a pre-culture of bacteria grown in liquid medium and diluted to the desired optical density (OD).
(§2) Compounds were evaluated for their ability to inhibit bacteria growth in liquid culture assay. The compounds were added in the desired concentrations to culture medium containing the bacteria suspension. After 24 h of incubation, the efficacy of compounds was determined by spectrometric measurement of bacteria growth. Inhibition was determined by comparing the absorbance values in wells containing the compounds with the absorbance in control wells without active ingredients.

The test system of data set [3] is Pseudomonas syringae pv. tomato. Briefly: Pseudomonas syringae pv. tomato in vitro cell test. The class given is cell-based. To be noted: 20 ppm of active ingredient, 24 h incubation, read-out: efficacy (inhibition of bacteria growth). Here is the method:
Culture medium: LB broth medium (Luria Broth Miller) Sigma
Inoculum: bacteria suspension
Compounds were solubilized in DMSO and the solution used to prepare the required range of concentrations. The final concentration of DMSO used in the assay was 1%.
as §1, §2

The test system of data set [4] is Colletotrichum lindemuthianum. Put plainly: In vivo preventive test on Colletotrichum lindemuthianum (Antrachnose on bean). To be noted: 144 h, inoculation 72 h after spraying, evaluated 6 days after inoculation, read-out: efficacy; for pest or weed control at 31 ppm: 31 ppm of active ingredient; for pest or weed control at 500 ppm: 500 ppm of active ingredient. Here is the method: (§3) The tested active ingredients were prepared by homogenization in a mixture of acetone/Dimethyl sulfoxide/Tween®, and then diluted with water to obtain the desired active material concentration. The young plants of bean were treated by spraying the active ingredient prepared as described above. Control plants were treated only with an aqueous solution of acetone/Dimethyl sulfoxide/Tween®.
After 72 hours, the plants were contaminated by spraying the leaves with an aqueous suspension of Colletotrichum lindemuthianum spores. The contaminated bean plants were incubated for 24 hours at 20° C. and at 100% relative humidity and then for 5 days at 20° C. and at 90% relative humidity. The test was evaluated 6 days after the inoculation. 0% means an efficacy which corresponds to that of the control plants while an efficacy of 100% means that no disease was observed.
Compound CMP1 was tested in an in vivo preventive test on Colletotrichum lindemuthianum (Antrachnose on bean) in the same conditions as described in Example F.

A further data set concerns Peronospora parasitica. Briefly: In vivo preventive test on Peronospora parasitica (Crucifer downy mildew). To be noted: Hyaloperonospora parasitica, in Brassica oleracea, 120 h, cabbage, evaluated 5 days after inoculation, read-out: efficacy; for pest or weed control at 31 ppm: 31 ppm of active ingredient; for pest or weed control at 125 ppm: 125 ppm of active ingredient; for pest or weed control at 500 ppm: 500 ppm of active ingredient. Here is the method: The tested active ingredients were prepared by homogenization in a mixture of acetone/Dimethyl sulfoxide/Tween®, and then diluted with water to obtain the desired active material concentration. The young plants of cabbage were treated by spraying the active ingredient prepared as described above. Control plants were treated only with an aqueous solution of acetone/Dimethyl sulfoxide/Tween®.
After 72 hours, the plants were contaminated by spraying the leaves with an aqueous suspension of Peronospora parasitica spores. The contaminated cabbage plants were incubated for 5 days at 20° C. and at 100% relative humidity.
The test was evaluated 5 days after the inoculation. 0% means an efficacy which corresponds to that of the control plants while an efficacy of 100% means that no disease was observed.
Compounds CMP2 and CMP3 were tested in an in vivo preventive test on Peronospora parasitica (Crucifer downy mildew) in the same conditions as described in Example G.

For data set [5], the system named is Xanthomonas campestris pv. campestris. Briefly: In vivo preventive test on Xanthomonas campestris pv. campestris (black rot on cabbage). To be noted: for pest or weed control at 125 ppm: 125 ppm of active ingredient. As to the method:
The tested active ingredients were prepared by homogenization in a mixture of acetone/Dimethyl sulfoxide/Tween®, and then diluted with water to obtain the desired active material concentration.
The young plants of cabbage were treated by spraying the active ingredient prepared as described above. Control plants were treated only with an aqueous solution of acetone/Dimethyl sulfoxide/Tween®.
After 72 hours, the plants were contaminated by spraying the leaves with an aqueous bacteria suspension of Xanthomonas campestris pv. campestris. The contaminated cabbage plants were incubated for 8 or 10 days at 27° C. at 95% relative humidity.
The test was evaluated 8 or 10 days after the inoculation. 0% means an efficacy which corresponds to that of the control plants while an efficacy of 100% means that no disease was observed. […]
Compounds CMP1, CMP2, CMP3 and CMP4 were tested in an in vivo preventive test on Xanthomonas campestris pv. campestris (black rot on cabbage) in the same conditions as described in Example H.

The test system of another data set is Uromyces appendiculatus. Put plainly: In vivo preventive test on Uromyces appendiculatus (bean rust). To be noted: 240 h, evaluated 10 days after inoculation, read-out: efficacy; for pest or weed control at 125 ppm: 125 ppm of active ingredient. Here is the method:
as §3
After 72 hours, the plants were contaminated by spraying the leaves with an aqueous suspension of Uromyces appendiculatus spores. The contaminated bean plants were incubated for 24 hours at 20° C. and at 100% relative humidity and then for 9 days at 20° C. and at 70-80% relative humidity. The test was evaluated 10 days after the inoculation. 0% means an efficacy which corresponds to that of the control plants while an efficacy of 100% means that no disease was observed.
Compounds CMP5 and CMP6 were tested in an in vivo preventive test on Uromyces appendiculatus (bean rust) in the same conditions as described in Example I.

For data set [6], the system named is Pseudomonas syringae pv. tomato. Briefly: In vivo preventive test on Pseudomonas syringae pv. tomato (bacterial speck on tomato). The settings on record: evaluated 5 or 6 days after inoculation, read-out: efficacy; for pest or weed control at 500 ppm: 500 ppm of active ingredient; for pest or weed control at 31 ppm: 31 ppm of active ingredient. Here is the method: The tested active ingredients were prepared by homogenization in a mixture of acetone/Dimethyl sulfoxide/Tween®, and then diluted with water to obtain the desired active material concentration. The young plants of tomato were treated by spraying the active ingredient prepared as described above. Control plants were treated only with an aqueous solution of acetone/Dimethyl sulfoxide/Tween®.
After 72 hours, the plants were contaminated by spraying the leaves with an aqueous bacteria suspension of Pseudomonas syringae pv. tomato. The contaminated tomato plants were incubated for 4 days in saturated atmosphere at 22° C. day/20° C. night—70% HR and then for 1 or 2 days at 22° C. day/20° C. night at 70-80% relative humidity.
The test was evaluated 5 or 6 days after the inoculation. 0% means an efficacy which corresponds to that of the control plants while an efficacy of 100% means that no disease was observed.
Compounds CMP1 and CMP4 were tested in an in vivo preventive test on Pseudomonas syringae pv. tomato (bacterial speck on tomato) in the same conditions as described in Example J.

Data set [7] in a line: LogP by HPLC on reversed phase columns (EEC directive 79/831 Annex V.A8). The class given is physicochemical. The settings on record: reversed phase HPLC columns. The procedure, abridged: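 Reversed-phase HPLC per EEC directive 79/831 Annex V.A8. Calibrated with straight-chain alkan-2-ones (C3–C16) of known LogP, LogP from retention times by linear interpolation between successive alkanones. Lambda-max taken from UV spectra (200–400 nm) at chromatographic peak maxima.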

The subject of the next data set is Alternaria alternata. Put plainly: Alternaria alternata in vitro cell test. It is filed as cell-based. To be noted: 120 h, 20 ppm of active ingredient, 5 days incubation, read-out: efficacy (inhibition of fungal growth). As to the method:
• Solvent: DMSO • Culture medium: 14.6 g anhydrous D-glucose (VWR), 7.1 g Mycological Peptone (Oxoid), 1.4 g granulated Yeast Extract (Merck), QSP 1 liter • Inoculum: spores suspension
Fungicides were solubilized in DMSO and the solution used to prepare the required range of concentrations. The final concentration of DMSO used in the assay was ≤[…]1%.
A spore suspension of A. alternata was prepared and diluted to the desired spore density.
Fungicides were evaluated for their ability to inhibit spore germination and mycelium growth in liquid culture assay. The compounds were added in the desired concentration to the culture medium with spores. After 5 days incubation, fungi-toxicity of compounds was determined by spectrometric measurement of mycelium growth. Inhibition of fungal growth was determined by comparing the absorbance values in wells containing the fungicides with the absorbance in control wells without fungicides.

Setting [8] is: 20 ppm of active ingredient, 24 h incubation.
[9] abbreviates: 31 ppm of active ingredient, evaluated 8 or 10 days after inoculation, read-out: efficacy.
[10] abbreviates: evaluated 8 or 10 days after inoculation, read-out: efficacy.
Where [11] appears, read: method [a]: LC-UV, in an acidic range, with 0.1% formic acid in water and acetonitrile as eluent (linear gradient from 10% to 95% acetonitrile).
[12] abbreviates: method [a]: LC-UV, acidic range, 0.1% formic acid in water and acetonitrile as eluent (linear gradient 10% to 95% acetonitrile).

One may read the inhibition as how much of the control response was suppressed. One may read the chromatographic logP as a lipophilicity value derived from retention on a column. Read a high chromatographic logP as higher lipophilicity.

For `CCOC(=O)C(COC)NC(=O)c1sc(Cl)c(Cl)c1Cl` (stereo not shown) [I.059], the fold induction at 75 ppm in data set [1] was more than 2. In data set [1], the fold induction at 300 ppm was more than 2. The inhibition at 20 ppm in data set [2] (setting [8]) and in data set [3] was not above 30% throughout. Also, the pest or weed control at 31 ppm in [4] is 70 to 79%; in the data set with Peronospora parasitica, 80 to 89%; in data set [5] (setting [9]), 90 to 100%. The pest or weed control at 500 ppm (in data set [4]; with Peronospora parasitica; in the data set with Uromyces appendiculatus (500 ppm of active ingredient); in [6]) was 90 to 100% in each case. The pest or weed control at 125 ppm in the data set on Peronospora parasitica is 70 to 79%; in data set [5] (setting [10]) it was 70%; with Uromyces appendiculatus it was 90 to 100%. In data set [7] (setting [11]), this molecule showed a chromatographic logP of 3.83.

Turning to `N#CCNC(=O)c1sc(Cl)c(Cl)c1Cl` [I.025, 3,4,5-trichloro-N-(cyanomethyl)thiophene-2-carboxamide], in data set [1], the fold induction at 75 ppm was more than 2. Also, the fold induction at 300 ppm in data set [1] is more than 2. Besides, the inhibition at 20 ppm in data set [2] (setting [8]) and in data set [3] was not above 30% each time. Moreover, the pest or weed control at 31 ppm in [4] was 90 to 100%; in the data set on Peronospora parasitica, 80 to 89%; in [5] (setting [9]) it was 70 to 79%. Besides, the figures for the pest or weed control at 500 ppm (in [4]; with Peronospora parasitica; in data set [6]) were 90 to 100%, 90 to 100% and 80 to 89%, respectively. The pest or weed control at 125 ppm in the data set with Peronospora parasitica lay in the range of 80 to 89%. Also, the chromatographic logP in data set [7] (given in the preparation examples, method not marked) amounted to 2.59; in data set [7] (setting [11]) it was 2.64.

`CNC(=S)SC[C@H](NC(=O)c1sc(Cl)c(Cl)c1Cl)C(=O)OC` [I.140]: in [1], the fold induction at 75 ppm was more than 2. In addition, the fold induction at 300 ppm in data set [1] was more than 2. For the same molecule, the inhibition at 20 ppm in [2] (24 h) and in data set [3] was not above 30% in each case. The pest or weed control at 31 ppm with Peronospora parasitica is 90 to 100%; in data set [5] (read-out: efficacy, 31 ppm of active ingredient, evaluated 8 or 10 days after inoculation), 90 to 100%; in data set [6], 70 to 79%. In addition, the pest or weed control at 125 ppm in the data set on Peronospora parasitica and with Uromyces appendiculatus was 90 to 100% each time. Besides, in data set [7] (setting [12]), the chromatographic logP is 3.52.

`COC(=O)[C@H](CC(=O)OC(C)(C)C)NC(=O)c1sc(Cl)c(Cl)c1Cl` [I.136]: the fold induction at 75 ppm in [1] was more than 2. Further, the fold induction at 300 ppm in data set [1] is more than 2. Further, the inhibition at 20 ppm (in the data set on Alternaria alternata; in data set [2] (setting [8]); in data set [3]) was not above 30% each time. Moreover, the pest or weed control at 31 ppm lay in the range of 90 to 100% in the data set with Peronospora parasitica and 80 to 89% in data set [5] (setting [9]). Moreover, the pest or weed control at 125 ppm was in the range of 90 to 100% in the data set with Peronospora parasitica and 70 to 79% in data set [5] (setting [10]). The molecule further registered a chromatographic logP in data set [7] (setting [12]) of 4.54.

With `COC(=O)C(NC(=O)c1sc(Cl)c(Cl)c1Cl)c1cccs1` (stereo not shown) [I.124], in data set [1], the fold induction at 75 ppm was more than 2. In addition, the fold induction at 300 ppm in data set [1] is more than 2. For the same molecule, the inhibition at 20 ppm in data set [2] (setting [8]) and in [3] was not above 30% in each case. Moreover, the pest or weed control at 31 ppm lay within 90 to 100% in [4], 90 to 100% with Peronospora parasitica and 80 to 89% in [6]. Besides, the pest or weed control at 125 ppm in the data set on Peronospora parasitica and in the data set with Uromyces appendiculatus was 90 to 100% each time. The molecule further showed a chromatographic logP in [7] (setting [12]) of 4.22.
